Measurements as given in patent US10154974B1, “Use of abscisic acid for the prevention and treatment of malaria” (The Regents of the University of California, priority 2015, dated 2018).

Legend:
[1] = Small animal chemistry panel of plasma; type: in vivo, mice
Experimental: FIG. 19A-C through FIG. 28A-B and Tables 6-1 through 6-4 support the use of ABA for treating Plasmodium-infected mammalian subjects. In the following tables, 4-5 mice were used per treatment, and data were analyzed by unpaired t-test. […] Abbreviations for Tables 6-3 and 6-4 are as follows: WBC=white blood cells, RBCs=red blood cells, MCV=mean corpuscular volume, MCH=mean corpuscular hemoglobin, MCHC=mean corpuscular hemoglobin concentration, RDW=red blood cell distribution width, MPV=mean platelet volume.

[2] = system: peroxisome proliferator activated receptor gamma (PPARγ); test: PPARγ transcript levels in mouse liver and spleen; type: in vivo, mice; conditions: day 7 of infection
Experimental: For mosquito immune gene expression, 20 midguts were dissected from mosquitoes in each treatment group at 1, 2, 4, 6, 8 and 24 hours post-feeding. Midguts were sonicated and stored in Trizol at −20° C. for up to a week before RNA was extracted according to manufacturer's instructions. cDNA synthesis was carried out using QantiTect Reverse Transcription Kit (Qiagen) and 200 ng of cDNA used per reaction for qRT-PCR with Sybr Green (Applied Biosystems). Fold changes in expression levels were calculated using the comparative threshold cycle method. Data were normalized to the housekeeping gene ribosomal protein S7 and to the control treatment. Primers and cycling conditions for AsNOS, defensin, LRIM, TEP1, and APL1 were as previously described (Hauck E S, et al. Microbes Infect. 2013; 15:775-87). For gene expression analysis of mouse liver and spleen, organs were flash frozen after necropsy and stored at −80° C. before RNA was extracted in Trizol and cDNA synthesized. Real-time PCR was performed using TaqMan probe-based expression assays for mouse NOS2, PPARγ (Mm00440940), and β-actin (Applied Biosystems) with volumes and cycling conditions as previously described (Chau et al., Infect Immun, 2013, 81:3515-26). Samples were analyzed in triplicate with 250 ng of cDNA per reaction to confirm uniformity of amplification. […] All expression data were analyzed by one sample t-test.

TAK = TAK phosphorylation in mosquito midgut; type: in vivo, Anopheles stephensi; conditions: ABA-supplemented parasite-fed mosquito midguts
Experimental: FIG. 11A-D illustrate that ABA decreases P. falciparum infection by increasing TAK phosphorylation. […] Each dot represents one replicate of 15 pooled midguts. […] Phosphorylated TAK levels were analyzed by one sample t-test, NOS expression by Wilcoxon matched-pairs signed rank test, and infection prevalence by Fisher's exact test. * p<0.05.

[3] = ABA extraction from mouse plasma and quantification by ELISA; type: in vivo, mice
Experimental: Mice were euthanized on day 7 post-infection. Blood was collected by heart puncture, spun at 8,000 rpm for 8 minutes and the plasma collected for ABA quantification. Livers and spleens were collected, retained in 10% formalin for 24 hours and then stored in 70% ethanol before sectioning and staining with hematoxylin and eosin. Liver sections were blindly scored on a scale from 0 to 3 for pigment levels, Kupffer cell density, portal tract inflammation, hemozoin deposition, extramedullary hematopoiesis, sinusoidal leukocyte density, sinusoidal adherence of leukocytes, and presence of microabscesses. Spleen sections were blindly scored on a scale from 0 to 3 for hyperplasia, extramedullary hematopoiesis, pigment, and levels of histiocytes and neutrophils. Pathology scores of control and treated mice were analyzed by unpaired t-test.
ABA was extracted from mouse plasma as described (Engelberth, J Vis Exp, 2009, 28:1127). Briefly, 50 μL of plasma was added to 200 μL extraction buffer (1-propanol:H2O:concentrated HCL at a 2:1:0.002 volume ratio) and vortexed. […] Dried samples were re-eluted in 100% methanol and ABA levels determined using the Phytodetek Abscisic Acid ELISA kit (Agdia) according to the manufacturer's instructions. ABA levels in the plasma of control and ABA-supplemented mice, 4-5 per group, were analyzed by Mann Whitney test.

[4] = system: parasite-specific IgG and IgG1; test: Western blot of infected RBC protein probed with mouse plasma; type: in vivo; conditions: P. yoelii-infected mice
Description: FIG. 26A-C illustrate that ABA-supplementation increased levels of parasite-specific IgG and IgG1 in mouse plasma. Shown are western blots of protein from uninfected and P. yoelii-infected RBCs probed with plasma from uninfected, P. yoelii-infected, ABA-supplemented P. yoelii-infected mice followed by IgG1 (FIG. 26A) and total IgG (FIG. 26B) secondary antibodies. Also shown is a densitometry analysis (FIG. 26C) of IgG1- and total IgG-bound protein from infected RBCs. Data are shown as fold change between control P. yoelii and ABA-supplemented P. yoelii plasma.

P. falciparum 3D7 = test: P. falciparum gametocyte formation assay; type: cell-based; conditions: 10 nM or 100 nM ABA, 6, 8 or 10 days post culture synchronization
Experimental: Studies of the effects of ABA on gametocyte formation were performed with P. falciparum 3D7 engineered to express GFP under the control of alpha tubulin II and Pfs25 promoters. Parasite cultures were synchronized using sorbitol. At 48 hours post-synchronization, 200 μL aliquots of parasite culture and complete RPMI medium were placed in a 96-well flat-bottomed plate and treated with 10 nM ABA, 100 nM ABA, or a diluent control. Media and treatments were refreshed every 48 hours. At 4, 6 and 8 days after the start of treatment, separate aliquots were harvested, media was removed, and replaced with 10% formalin for 1 hour at room temperature. Formalin was removed and replaced with PBS before gametocyte levels were measured by flow cytometry using a FACS Calibur flow cytometer (BD Biosciences) with a GFP filter. Four replicates were carried out, each using a separate parasite culture passage. Relative changes in gametocyte numbers were normalized to controls set at 1 and analyzed by one-sample t-test.

[5] = uninfected and infected mice, day 11 post-infection

CC1=CC(=O)CC(C)(C)[C@@]1(O)/C=C/C(C)=C\C(=O)O (racemic) [ABA, (2Z,4E)-5-[(1S)-1-hydroxy-2,6,6-trimethyl-4-oxocyclohex-2-en-1-yl]-3-methylpenta-2,4-dienoic acid]
alanine transaminase, Mean ([1]; P. yoelii-infected mice): 30.23 U/L | albumin, Mean ([1]; P. yoelii-infected mice): 2.25 g/dL | aspartate transaminase, Mean ([1]; P. yoelii-infected mice): 194.7 U/L | creatine, Mean ([1]; P. yoelii-infected mice): 0.18 mg/dL | phosphorus, Mean ([1]; P. yoelii-infected mice): 8.43 mg/dL | total bilirubin, Mean ([1]; P. yoelii-infected mice): 0.26 mg/dL | total protein, Mean ([1]; P. yoelii-infected mice): 4.12 g/dL | liver function (blood urea nitrogen levels in plasma) ([1]; day 11 post-infection): improved | plasma indicators of organ health ([1]; uninfected and P. yoelii-infected mice): no effect | glucose levels in mouse plasma [1, 5]: does not alter | insulin levels in mouse plasma [1, 5]: does not alter | alanine transaminase, Mean ([1]; uninfected mice): 176.8 U/L | albumin, Mean ([1]; uninfected mice): 3.23 g/dL | aspartate transaminase, Mean ([1]; uninfected mice): 1437 U/L | blood urea nitrogen, Mean ([1]; uninfected mice): 28.76 mg/dL | creatine, Mean ([1]; uninfected mice): 0.21 mg/dL | phosphorus, Mean ([1]; uninfected mice): 10.07 mg/dL | total bilirubin, Mean ([1]; uninfected mice): 0.06 mg/dL | total protein, Mean ([1]; uninfected mice): 4.67 g/dL | transcript levels of PPARγ [2]: increased | TAK phosphorylation (TAK): increasing | increase of ABA levels in plasma ([3]; P. yoelii infection, vs non-supplemented infected mice): over 6 fold | ABA levels in plasma ([3]; oral supplementation, absence of infection): did not alter | levels of parasite-specific IgG and IgG1 in mouse plasma [4]: increased | gametocyte levels (P. falciparum 3D7): no effect
